Like-named read-outs stand apart in the source and are kept apart here.
What was measured:
[1] = test system: histiocytic lymphoma (U937); assay: cell proliferation assay ([methyl-3H] thymidine incorporation), U937; assay type: cell-based, human; details: for activity at 6 µM: Homo sapiens, U-937, 72 hours in culture, n=6, read-out: U937: percentage of control 3[H] Thymidine incorporation
Description: (§1) Two human cell lines namely a histiocytic lymphoma (U937) and a melanoma (RPMI-7951) were seeded into 30 mm^2 tissue culture wells, in the appropriate culture medium supplemented with 10% fetal calf serum at a density of 250 cells/mm^2. Six hours later the test compounds were added in the same culture medium to the cells to give a final concentration of 6 μM. Control wells contained cells supplemented with the same culture medium containing the equivalent amount of drug vehicle, which in this case was DMSO at a final concentration of 0.08%. After 72 hours in culture the cells were pulsed for 3 hours with [methyl-^3[H] Thymidine] (2 μCi/ml) and then harvested onto filter mats and DNA associated radioactivity counted. Results are expressed as percentage of control ^3[H] Thymidine incorporation (n=6±1 stdv).
Further examples were tested in the U937 assay described above at 6 μM and the results, expressed as percentage of control ^3[H] Thymidine incorporation (n=6±1 stdv), are set out in the following Table 2.
as §1, with “A” for “Two”, “line,” for “lines”, “(U937), was” for “(U937) and a melanoma (RPMI-7951) were”, “30MM^2” for “30 mm^2”, “cellS/MM^2.” for “cells/mm^2.”, “were” for “are”

[2] = test system: melanoma (RPMI-7951); assay: cell proliferation assay ([methyl-3H] thymidine incorporation), RPMI-7951; assay type: cell-based, human; details: Table 1; final concentration 6 μM; 72 hours in culture, 3 hours pulse; n=6
Description: as §1

[3] = Table 1, final concentration 6 μM, 3 hours pulse

| Compound | activity at 6 µM [1, 3] [%] | RPMI: percentage of control 3[H] Thymidine incorporation [2] | activity at 6 µM ([1]; Table 2, 6 μM) [%] | also measured |
| --- | --- | --- | --- | --- |
| COC(=O)[C@H](Cc1ccccc1)NC(=O)[C@H](CC(C)C)[C@H](C)C(=O)NO [Example 5, 3R-(2-Phenyl-1S-methylcarboxy-ethylcarbamoyl)-2S, 5-dimethylhexanohydroxamic acid] | 19 | 82 percentage of control | – | – |
| C=CC[C@H](C(=O)NO)[C@@H](CC(C)C)C(=O)N[C@@H](Cc1ccccc1)C(=O)OCC [Example 2, 2S-(3S-Hydroxycarbamoyl-2R-isobutyl-hex-5-enoylamino)-3-phenylpropionic acid ethyl ester] | 7 | 37 percentage of control | – | – |
| C=CC[C@H](C(=O)NO)[C@@H](CC(C)C)C(=O)N[C@@H](Cc1ccccc1)C(=O)OC(C)C [Example 3, 2S-(3S-Hydroxycarbamoyl-2R-isobutyl-hex-5-enoylamino)-3-phenylpropionic acid isopropyl ester] | 2.5 | 27 percentage of control | – | – |
| C=CC[C@H](C(=O)NO)[C@@H](CC(C)C)C(=O)N[C@@H](Cc1ccccc1)C(=O)OC [Example 1, 2S-(3S-Hydroxycarbamoyl-2R-isobutyl-hex-5-enoylamino)-3-phenylpropionic acid methyl ester] | 7 | 40 percentage of control | – | – |
| CC(C)C[C@@H](C(=O)N[C@@H](Cc1ccccc1)C(=O)OC(C)C)[C@H](CSc1cccs1)C(=O)NO [Example 17, 2S-{2R-[1S-Hydroxycarbamoyl-2-(thiophen-2-ylsulphanyl)-ethyl]-4-methyl-pentanoylamino}-3-phenyl-propionic acid isopropyl ester] | – | – | 0 | – |
| C=CC[C@H](C(=O)NO)[C@@H](CC(C)C)C(=O)N[C@@H](Cc1ccccc1)C(=O)OC(CC)CC [Example 30, 2S-(3S-Hydroxycarbamoyl-2R-isobutyl-hex-5-enoylamino)-3-phenylpropionic acid 1-ethyl-propyl ester] | – | – | 6 | – |
| C=CC[C@H](C(=O)NO)[C@@H](CC(C)C)C(=O)N[C@H](C(=O)OC(C)C)C(C)(C)C [Example 22, 2S-(3S-Hydroxycarbamoyl-2R-isobutyl-hex-5-enoylamino)-3,3-dimethyl-butyric acid isopropyl ester] | – | – | 51 | – |
| C=CC[C@H](C(=O)NO)[C@@H](CC(C)C)C(=O)N[C@@H](Cc1ccccc1)C(=O)OC1CCN(C)CC1 [Example 29, 2S-(3S-Hydroxycarbamoyl-2R-isobutyl-hex-5-enoylamino)-3-phenylpropionic acid 1-methyl-piperidin-4-yl ester] | – | – | 49 | – |
| C=CC[C@H](C(=O)NO)[C@@H](CC(C)C)C(=O)N[C@@H](COC(C)(C)C)C(=O)OC1CCCC1 [Example 40, 3-tert-Butoxy-2S-(3S-hydroxcarbamoyl-2R-isobutyl-hex-5-enoylamino)-propionic acid cyclopentyl ester] | – | – | 0 | – |
| C=CC[C@H](C(=O)NO)[C@@H](CC(C)C)C(=O)N[C@@H](CC1CCCCC1)C(=O)OC1CCCC1 [Example 28, 3-Cyclohexyl-2S-(3S-hydroxycarbamoyl-2R-isobutyl-hex-5-enoylamino)-propionic acid cyclopentyl ester] | – | – | 0 | – |
| O=c1[nH]cc(F)c(=O)[nH]1 [5-fluorouracil, reference compound] | – | – | – | activity in the U937 assay relative to that observed with the vehicle alone ([1]; 6 μM, comparison compound): 50% |
| C=CC[C@H](C(=O)NO)[C@@H](CC(C)C)C(=O)N[C@@H](Cc1ccccc1)C(=O)OCc1ccccc1 [Example 26, 2S-(3S-Hydroxycarbamoyl-2R-isobutyl-hex-5-enoylamino)-3-phenylpropionic acid benzyl ester] | – | – | 0 | – |
| CO[C@H](C(=O)NO)[C@@H](CC(C)C)C(=O)N[C@H](C(=O)OC(C)C)C(C)(C)C [Example 24, 2S-[2R-(S-Hydroxycarbamoyl-methoxy-methyl)-4-methyl-pentanoylamino]-3,3-dimethyl-butyric acid isopropyl ester] | – | – | 50 | – |

Source: patent US6462023B1, “Cytostatic agents” (British Biotech Pharmaceuticals, Ltd., priority 1988, dated 2002)
